{"source": "patent US12691156B2", "about": "“Prebiotic compositions and method for promoting growth of Hafnia alvei by using the same” (TCI CO., LTD., priority 2022, dated 2026)", "test_system": "Hafnia alvei BCRC10906", "experiment": "Influence of prebiotic compositions in different combinations on Hafnia alvei growth (OD600, Embodiment 4)", "type": "cell-based", "conditions": "for ability to promote the growth of Hafnia alvei (in words) / Relative bacterial count (%): 1 g formula in 10 mL BHI, 24 hours; for Absorbance (OD600): 10 mL BHI medium containing 1 g formula, anaerobic culture 37° C. 24 hours, control group 0.078 ± 0.039; for Relative bacterial count (%): converted from OD600, control group = 100 ± 50", "source_text": "The groups were divided into a control group and 11 experimental groups. The experimental groups included 6 single-formula experimental groups and 5 complex-formula experimental groups, namely a single-formula experimental group to a single-formula experimental group, and a complex-formula experimental group to a complex-formula experimental group. The adopted liquid medium was a brain heart infusion broth (BHI, hereinafter referred to as the BHI medium, and purchased from DifcoTM). The adopted test strains were Hafnia alvei BCRC10906 purchased from Bioresource Collection and Research Center (BCRC). Each group is shown as Table 5. Control group: No prebiotics were added, and the experimental medium was 10 ml of the BHI medium. 6 single-formula experimental groups: A single-formula experimental group containing erythritol (purchased from SWEET TOWN ENTERPRISE CORP.), a single-formula experimental group containing arabinose (purchased from […] Co., Ltd.), a single-formula experimental group containing Arabic gum (purchased from Buildmore Enterprise Co., Ltd.), a single-formula experimental group containing fructooligosaccharide (purchased from Panel Japan Co., Ltd.), a single-formula experimental group containing soybean peptide powder (purchased from FUJI OIL Co. Ltd.), and a single-formula experimental group containing the black tea ferment prepared in Embodiment 1. The experimental medium of each group was 10 ml of the BHI medium containing 1 g of prebiotics (namely, erythritol, arabinose, Arabic gum, fructooligosaccharide, soybean peptide powder, the black tea ferment prepared in Embodiment 1. The 6 single-formula experimental groups were also called single-ingredient formulas to [6]). 5 complex-formula experimental groups: A complex-formula experimental group containing the black tea ferment prepared in Embodiment 1 and the soybean peptide powder; a complex-formula experimental group containing the black tea ferment prepared in Embodiment 1, the soybean peptide powder and erythritol; a complex-formula experimental group containing the black tea ferment prepared in Embodiment 1, the soybean peptide powder and fructooligosaccharide; a complex-formula experimental group containing the black tea ferment prepared in Embodiment 1, the soybean peptide powder and arabinose; and a complex-formula experimental group containing the black tea ferment prepared in Embodiment 1, the soybean peptide powder and Arabic gum. The weight ratio of the prebiotic compositions of the complex-formula experimental groups was 1:1 or 1:1:1. The experimental medium of each group was 10 ml of the BHI medium containing 1 g of prebiotic composition (namely, a combination of 0.5 g of the black tea ferment prepared in Embodiment 1 and 0.5 g of the soybean peptide powder, a combination of about 0.33 g of the black tea ferment prepared in Embodiment 1, about 0.33 g of the soybean peptide powder and about 0.33 g of erythritol, a combination of about 0.33 g of the black tea ferment prepared in Embodiment 1, about 0.33 g of the soybean peptide powder and about 0.33 g of fructooligosaccharide , a combination of about 0.33 g of the black tea ferment prepared in Embodiment 1, about 0.33 g of the soybean peptide powder and about 0.33 g of arabinose, and a combination of about 0.33 g of the black tea ferment prepared in Embodiment 1, about 0.33 g of the soybean peptide powder and about 0.33 g of Arabic gum; and the 5 complex-formula experimental groups are also referred to as complex-ingredient formulas to [5]). [table] Firstly, 5% (v/v) of Hafnia alvei was inoculated to the BHI medium, and activated in an anaerobic operation box (5% of hydrogen, 10% of carbon dioxide and 85% of nitrogen) at 37° C. for 24 hours to obtain an experimental bacterial solution. […]", "data": [{"smiles": "OC[C@@H](O)[C@@H](O)CO", "note": "[Single-formula experimental group [1], Erythritol]", "values": [{"measurement": "ability to promote the growth of Hafnia alvei (in words)", "result": "promoted the growth of Hafnia alvei"}, {"measurement": "Absorbance (OD600)", "result": "0.169 ± 0.026"}, {"measurement": "Absorbance (OD600)", "setting": "listed as single-formula experimental group [1]", "result": "0.169±0.026"}, {"measurement": "Relative bacterial count (%)", "result": "217 ± 34", "unit": "%"}]}, {"smiles": "O=C[C@@H](O)[C@H](O)[C@H](O)CO", "note": "[Single-formula experimental group [2], Arabinose]", "values": [{"measurement": "ability to promote the growth of Hafnia alvei (in words)", "result": "promoted the growth of Hafnia alvei"}, {"measurement": "Absorbance (OD600)", "result": "0.176 ± 0.038"}, {"measurement": "Absorbance (OD600)", "setting": "listed as single-formula experimental group [2]", "result": "0.176±0.038"}, {"measurement": "Relative bacterial count (%)", "result": "226 ± 49", "unit": "%"}]}]}
